Test results from patent publication US20160150792A1, “WATER PURIFICATION COMPOSITIONS AND APPLICATIONS FOR SAME” (priority 2011, published 2016).

Tested on: mixture of E. coli and P. aeruginosa
Experiment: Disinfection of contaminated surgical instruments and objects
Type: cell-based, E. coli (ATCC 11229) and P. aeruginosa (ATCC 15442)
Conditions: immersion 30 minutes; instruments contaminated with 7.0×10^9 bacteria
Procedure: Cultures: E. coli (ATCC11229) and P. aeruginosa (ATCC15442) from the American Type Culture Collection (ATCC) were grown in Tryptic Soy Broth (TSB) according to the instructions provided by ATCC.
Sterile surgical instruments (probes, scalpel handles, and forceps) and other objects were inoculated with 20 μL of the concentrated culture and allowed to dry for 30 minutes in a laminar flow hood. Contaminated surgical instruments were treated with SAFI (various copper or copper/zinc mixes at pH 3.2 or pH 0.2) by immersing the objects in 40 mL sterile water containing 1, 10, or 100 ppm SAFI for time periods of 30 minutes −22 hours. Comparison treatments included no treatment (control), boiling the instruments in water for 30 minutes, immersing the instruments in 40 mL of 70% EtOH for 30 minutes, or autoclaving the instruments at 15 lbs/in^2 at 121° C. for 20 minutes. […]
The ability of a solution of SAFI to disinfect contaminated surgical instruments was determined by contaminating forceps, scalpel handles, and probes with 20 uL of a concentrated mixture of E. coli and P. aeruginosa and incubating the contaminated instruments in a SAFI solution for 30 minutes. […] Bacteria present after overnight incubation were determined by standard plate counts. […]

CCO [70% ethanol, ethanol]
effectiveness in killing bacteria (comparison treatment): effective in killing bacteria
